The structures appear in SMILES notation.

The record followed here is paper PMC6271245, “Discovery of Gramine Derivatives That Inhibit the Early Stage of EV71 Replication in Vitro” (Molecules, 2014).

The subject of data set [1] is EV71 RNA. Briefly: Viral RNA synthesis by quantitative RT-PCR in RD cells. The format is cell-based, Enterovirus 71. Particulars: 40 µg/mL. The method, then:
To further analyze the effect of 4s on EV71 replication in RD cells, the efficacy of 4s in inhibiting viral RNA synthesis was analyzed by quantitative reverse transcription polymerase chain reaction (RT-PCR). The infected cells treated with or without 40 µg/mL 4s were harvested at 4, 8, 24 and 36 h pi to examine the relative amount of viral RNA. The fold difference of RNA for all the samples was calculated relative to the RNA level in the EV71-infected cells (virus control) at 4 h pi.
(§1) Figure 4 The effect of 4s on EV71 replication in RD cells. RD cells infected with 100 TCID50 of EV71 were incubated in the absence (virus control) or presence of 40 µg/mL 4s and harvested at the indicated times pi. (A) Total RNA was extracted from cells and culture supernatants and EV71 RNA levels were measured. Cellular actin amplification was used for normalization. The ΔΔCt data were calculated from three independent experiments; (B) EV71-protein was determined by indirect immunofluorescence using a mouse anti-enterovirus 71 monoclonal antibody and an Alexa-Fluor-488-conjugated AffiniPure goat anti-mouse IgG (H + L). The nucleus was stained with DAPI; the green foci indicate the presence of EV71 protein.
The EV71 RNA was extracted from infected cells and culture supernatants with TRIzol (Gibco-Invitrogen, Carlsbad, CA, USA) and reverse-transcribed using a PrimeScript RT reagent kit (TaKaRa, Dalian, China) according to the manufacturer’s instructions. The products of reverse transcription were quantified with the SYBR Premix Ex Taq II (perfect real time) kit (TaKaRa) and detected with a Step One Plus sequence detection system (Applied Biosystems, Foster City, CA, USA). Expression of actin was used as an internal standard. The special primer sequences were: EV71-VP1-F: 5'-[…]-3', EV71-VP1-R: 5'-GTCTCAATCATGCTCTC GTCACT-3'; Actin-F: 5'-[…]-3', Actin-R: 5'-AGGGGCCGGACTCGT CATACT-3'.

Data set [2] relates to EV71 protein. Briefly: Viral protein by indirect immunofluorescence in RD cells. The format is cell-based, Enterovirus 71. Particulars: 40 µg/mL post-infection, RD cells, 4, 8 or 24 h. The protocol:
as §1
The influence of 4s on the replication of EV71 was also determined at the translational level. The RD cells grown in 24 coverslips were infected with EV71 and treated with 40 µg/mL 4s post-infection, intracellular viral protein was detected by indirect immunofluorescence analysis after incubation for 4, 8 or 24 h. […]

The test system of data set [3] is EV71-infected RD cells. Briefly: EV71-induced apoptosis, Annexin-V/propidium iodide flow cytometry. Format: cell-based, Human. Particulars: 40 µg/mL, 100 TCID50 EV71, 36–48 h. The method, then:
EV71 adsorption, internalization, entry, uncoating, and viral RNA replication are […] to trigger infected cell apoptosis, but it is required for viral protein synthesis. Flow cytometry was performed to investigate the effect of 4s on virus-induced cell apoptosis. In the assays, EV71-infected cells were stained with Annexin-V-fluorescein and propidium iodide; fluorescence drifting indicates cells undergoing apoptosis.
Figure 5 Inhibition effect of 4s on EV71-induced apoptosis. RD cells were (A) left untreated or (B) infected with 100 TCID50 of EV71. After viral adsorption, RD cells were incubated in the (B) absence or (C) presence of 40 µg/mL 4s for 36–48 h; (D) The cells were stained with Annexin-V- fluorescein and propidium iodide and measured using flow cytometry. TEXT PRINTED IN THE PICTURE: (C) Virus + 4s: Q1 3.21%; Q2 4.06%; Q4 89.2%; Q3 3.55% DOUBTS OF THE COPYIST ABOUT THIS PICTURE: Panels A (Mock) and B (Virus control) also print quadrant percentages (A: 0.548%, 1.84%, 93.9%, 3.75%; B: 1.32%, 40.1%, 23.7%, 34.9%). I left them out because they are controls without a substance.
For the apoptosis assay, RD cells in 6-well plates infected with 100 TCID50 of EV71 were left untreated or treated with 40 µg/mL 4s for 36–48 h, until the CPEs of virus control cells reached 70%–80%. […]

Data set [4] deals with EV71. The experiment in a line: Analysis of effective stage (treatment before, during or post infection) in RD cells. Format: cell-based, Enterovirus 71. The note with it: up to a concentration of 40 µg/mL.

As to `c1ccc(C(Nc2nc3ccccc3s2)c2c[nH]c3ccccc23)nc1` (centres unmarked) [Compound 4s], the “fold reduction of viral RNA copy number vs virus control” value in data set [1] (4 h pi) stood at 1.8 fold; in data set [1] (8 h pi), 9.0 fold; in data set [1] (24 h pi) it was 79.8 fold; in data set [1] (36 h pi), 174.7 fold. Further, the “viral protein synthesis (immunofluorescent foci)” value in data set [2] is recorded as “suppressed”. Besides, in data set [3], the “EV71-induced apoptosis (fluorescence drifting)” value was “fluorescence drifting could hardly be observed”. In data set [4], the morphological cytotoxicity result is reported as “no morphological cytotoxicity was observed”.

With `Cn1cc(C(Nc2nc3ccccc3s2)c2ccccc2F)c2ccccc21` (centres unmarked) [Compound 4r], the morphological cytotoxicity result in data set [4] is reported as “no morphological cytotoxicity was observed”.
